What was measured:
Experiment in all cases: VEGFR2 Kinase Assay
Details in all cases: pH 7.2; 25 °C
[1] = biological target: Vascular endothelial growth factor receptor 2 (Homo sapiens, UniProt P35968)
Description: VEGFR kinase assays were set up to assess the level of autophosphorylation based on DELFIA/Time-Resolved Fluorometry. 96-well plates were coated at room temperature for 1-2 h with 100 μL per well of 25 μg mL−1 poly-(Glu4-Tyr) peptide (Sigma) in Tris-buffered saline (TBS) (25 mM Tris, pH 7.2, 150 mM NaCl). Unbound peptide was washed three times with PBS. The cytoplasmic domain of VEGFR-2 enzyme was diluted (depending on the specific activity of the batch, from 10- to 20-fold) in 0.1% BSA/4 mM HEPES. […] Controls were done by adding DMSO alone, i.e., no test compound, to wells containing the master mix of enzyme plus kinase buffer. After 15 min at room temperature, ATP/MgCl2 (20 μL of

[2] = biological target: Epidermal growth factor receptor (Homo sapiens, UniProt P00533)
[3] = biological target: Fibroblast growth factor 2 (Homo sapiens, UniProt P09038)

Sequence of Epidermal growth factor receptor (P00533 whole entry): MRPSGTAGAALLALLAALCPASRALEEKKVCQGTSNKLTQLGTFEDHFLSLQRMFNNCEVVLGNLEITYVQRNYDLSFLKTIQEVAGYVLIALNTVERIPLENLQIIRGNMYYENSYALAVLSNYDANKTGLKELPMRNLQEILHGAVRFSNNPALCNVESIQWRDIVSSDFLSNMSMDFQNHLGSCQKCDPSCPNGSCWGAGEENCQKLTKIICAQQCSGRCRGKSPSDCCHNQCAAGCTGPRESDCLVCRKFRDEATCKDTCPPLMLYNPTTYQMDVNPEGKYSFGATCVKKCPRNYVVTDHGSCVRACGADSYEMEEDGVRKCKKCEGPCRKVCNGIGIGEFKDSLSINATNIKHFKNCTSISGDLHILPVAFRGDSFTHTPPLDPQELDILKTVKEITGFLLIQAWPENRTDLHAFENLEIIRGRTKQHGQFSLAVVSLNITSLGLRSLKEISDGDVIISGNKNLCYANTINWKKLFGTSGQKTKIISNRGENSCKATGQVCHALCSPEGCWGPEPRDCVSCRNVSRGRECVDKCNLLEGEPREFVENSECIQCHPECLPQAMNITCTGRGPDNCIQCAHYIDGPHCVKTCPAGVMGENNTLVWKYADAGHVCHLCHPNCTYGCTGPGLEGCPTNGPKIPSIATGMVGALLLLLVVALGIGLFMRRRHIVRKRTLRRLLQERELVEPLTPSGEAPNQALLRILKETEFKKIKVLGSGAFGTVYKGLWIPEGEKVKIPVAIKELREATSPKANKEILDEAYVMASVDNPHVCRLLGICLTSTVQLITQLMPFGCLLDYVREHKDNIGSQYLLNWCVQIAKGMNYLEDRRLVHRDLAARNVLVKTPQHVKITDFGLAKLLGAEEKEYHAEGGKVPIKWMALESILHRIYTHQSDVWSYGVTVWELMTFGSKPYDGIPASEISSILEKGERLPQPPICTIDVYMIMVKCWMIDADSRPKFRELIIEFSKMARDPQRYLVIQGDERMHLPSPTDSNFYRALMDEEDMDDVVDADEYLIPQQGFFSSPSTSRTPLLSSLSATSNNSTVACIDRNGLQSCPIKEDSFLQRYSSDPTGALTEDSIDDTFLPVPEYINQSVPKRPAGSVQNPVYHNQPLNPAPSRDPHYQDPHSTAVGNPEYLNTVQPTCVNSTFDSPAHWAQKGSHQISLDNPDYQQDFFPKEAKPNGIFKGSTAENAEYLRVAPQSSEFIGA
Sequence of Vascular endothelial growth factor receptor 2 (P35968 whole entry, the tested form may be a part): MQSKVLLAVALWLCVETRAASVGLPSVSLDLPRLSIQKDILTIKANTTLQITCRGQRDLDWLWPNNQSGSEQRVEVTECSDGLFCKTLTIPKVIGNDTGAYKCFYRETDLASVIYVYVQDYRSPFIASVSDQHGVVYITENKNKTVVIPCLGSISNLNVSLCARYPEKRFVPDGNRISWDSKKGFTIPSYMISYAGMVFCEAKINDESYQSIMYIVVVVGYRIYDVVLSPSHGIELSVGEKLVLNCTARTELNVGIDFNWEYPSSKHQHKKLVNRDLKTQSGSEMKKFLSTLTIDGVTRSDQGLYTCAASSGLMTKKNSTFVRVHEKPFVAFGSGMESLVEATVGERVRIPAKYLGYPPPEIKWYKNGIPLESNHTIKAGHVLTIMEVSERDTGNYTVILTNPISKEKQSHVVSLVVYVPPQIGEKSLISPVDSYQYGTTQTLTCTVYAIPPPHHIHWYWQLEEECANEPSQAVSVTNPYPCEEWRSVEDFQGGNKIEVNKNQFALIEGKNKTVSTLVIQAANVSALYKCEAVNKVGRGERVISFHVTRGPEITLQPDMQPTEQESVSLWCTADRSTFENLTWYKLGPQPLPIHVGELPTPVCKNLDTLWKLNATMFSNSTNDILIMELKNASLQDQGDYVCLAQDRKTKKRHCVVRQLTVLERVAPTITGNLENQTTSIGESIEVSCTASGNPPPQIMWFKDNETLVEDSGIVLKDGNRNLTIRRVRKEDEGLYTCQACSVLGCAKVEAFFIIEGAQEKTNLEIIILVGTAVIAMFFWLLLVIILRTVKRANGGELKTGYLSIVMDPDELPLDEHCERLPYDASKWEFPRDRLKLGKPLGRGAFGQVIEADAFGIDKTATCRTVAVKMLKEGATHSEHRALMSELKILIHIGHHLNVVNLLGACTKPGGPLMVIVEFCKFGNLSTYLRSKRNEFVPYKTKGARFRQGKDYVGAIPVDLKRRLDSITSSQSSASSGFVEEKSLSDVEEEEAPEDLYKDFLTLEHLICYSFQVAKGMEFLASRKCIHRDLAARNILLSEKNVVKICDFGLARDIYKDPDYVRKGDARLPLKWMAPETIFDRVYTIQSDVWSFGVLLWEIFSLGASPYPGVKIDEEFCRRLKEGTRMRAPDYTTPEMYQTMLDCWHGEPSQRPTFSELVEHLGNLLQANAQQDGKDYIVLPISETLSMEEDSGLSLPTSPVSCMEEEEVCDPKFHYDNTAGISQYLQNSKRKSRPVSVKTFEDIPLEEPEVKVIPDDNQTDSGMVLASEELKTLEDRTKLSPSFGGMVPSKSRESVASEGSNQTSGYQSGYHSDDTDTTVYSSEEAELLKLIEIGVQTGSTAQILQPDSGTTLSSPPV

IC50 [1] [nM]	IC50 [2] [nM]	IC50 [3] [nM]	SMILES
84.3	483	609	OC(COc1ncnc2ccccc12)Cn1ccnc1 (configuration not stated) [1-(1H-Imidazol-1-yl)-3-(quinazolin-4-yloxy)propan-2-ol (3t)]
55.7	444	586	Cc1nccn1CC(O)COc1ncnc2ccccc12 (configuration not stated) [1-(2-Methyl-1H-imidazol-1-yl)-3-(quinazolin-4-yloxy)propan-2-ol (3u)]
47.7	409	398	OC(COc1ncnc2ccccc12)CN1CCN(c2cccc(Cl)c2Cl)CC1 (configuration not stated) [1-(4-(2,3-Dichlorophenyl)piperazin-1-yl)-3-(quinazolin-4-yloxy)propan-2-ol (3k)]
12.4	395	222	Cc1ccc(N2CCN(CC(O)COc3ncnc4ccccc34)CC2)c(C)c1 (configuration not stated) [1-(4-(2,4-Dimethylphenyl)piperazin-1-yl)-3-(quinazolin-4-yloxy)propan-2-ol (3m)]
49.8	418	506	OC(COc1ncnc2ccccc12)CN1CCN(c2ccccc2Cl)CC1 (configuration not stated) [1-(4-(2-Chlorophenyl)piperazin-1-yl)-3-(quinazolin-4-yloxy)propan-2-ol (3b)]
34.7	409	372	OC(COc1ncnc2ccccc12)CN1CCN(c2ccccc2F)CC1 (configuration not stated) [1-(4-(2-Fluorophenyl)piperazin-1-yl)-3-(quinazolin-4-yloxy)propan-2-ol (3d)]
9.98	357	209	COc1ccccc1N1CCN(CC(O)COc2ncnc3ccccc23)CC1 (configuration not stated) [1-(4-(2-Methoxyphenyl)piperazin-1-yl)-3-(quinazolin-4-yloxy)propan-2-ol (3g)]
8.42	344	178	OC(COc1ncnc2ccccc12)CN1CCN(c2ccc(Cl)c(Cl)c2)CC1 (configuration not stated) [1-(4-(3,4-Dichlorophenyl)piperazin-1-yl)-3-(quinazolin-4-yloxy)propan-2-ol (3l)]
4.98	307	145	OC(COc1ncnc2ccccc12)CN1CCN(c2cccc(C(F)(F)F)c2)CC1 (configuration not stated) [1-(4-(3-(Trifluoromethyl)phenyl)piperazin-1-yl)-3-(quinazolin-4-yloxy)propan-2-ol (3j)]
47.4	413	402	OC(COc1ncnc2ccccc12)CN1CCN(c2cccc(Cl)c2)CC1 (configuration not stated) [1-(4-(3-Chlorophenyl)piperazin-1-yl)-3-(quinazolin-4-yloxy)propan-2-ol (3c)]
2.89	208	103	COc1cccc(N2CCN(CC(O)COc3ncnc4ccccc34)CC2)c1 (configuration not stated) [1-(4-(3-Methoxyphenyl)piperazin-1-yl)-3-(quinazolin-4-yloxy)propan-2-ol (3h)]
21.8	403	300	OC(COc1ncnc2ccccc12)CN1CCN(c2ccc(F)cc2)CC1 (configuration not stated) [1-(4-(4-Fluorophenyl)piperazin-1-yl)-3-(quinazolin-4-yloxy)propan-2-ol (3e)]
3.42	276	122	COc1ccc(N2CCN(CC(O)COc3ncnc4ccccc34)CC2)cc1 (configuration not stated) [1-(4-(4-Methoxyphenyl)piperazin-1-yl)-3-(quinazolin-4-yloxy)propan-2-ol (3i)]
16.5	382	248	O=[N+]([O-])c1ccc(N2CCN(CC(O)COc3ncnc4ccccc34)CC2)cc1 (configuration not stated) [1-(4-(4-Nitrophenyl)piperazin-1-yl)-3-(quinazolin-4-yloxy)propan-2-ol (3f)]
52.2	435	444	OC(COc1ncnc2ccccc12)CN1CCN(Cc2ccccc2)CC1 (configuration not stated) [1-(4-Benzylpiperazin-1-yl)-3-(quinazolin-4-yloxy)propan-2-ol (3n)]
54.4	462	519	CCN1CCN(CC(O)COc2ncnc3ccccc23)CC1 (configuration not stated) [1-(4-Ethylpiperazin-1-yl)-3-(quinazolin-4-yloxy)propan-2-ol (3p)]
74.2	452	592	Cc1cn(CC(O)COc2ncnc3ccccc23)cn1 (configuration not stated) [1-(4-Methyl-1H-imidazol-1-yl)-3-(quinazolin-4-yloxy)propan-2-ol (3v)]
59.3	474	419	CN1CCN(CC(O)COc2ncnc3ccccc23)CC1 (configuration not stated) [1-(4-Methylpiperazin-1-yl)-3-(quinazolin-4-yloxy)propan-2-ol (3o)]
32.6	400	293	OC(COc1ncnc2ccccc12)CN1CCN(c2ccccc2)CC1 (configuration not stated) [1-(4-Phenylpiperazin-1-yl)-3-(quinazolin-4-yloxy)propan-2-ol (3a)]
63	455	582	CN(C)CC(O)COc1ncnc2ccccc12 (configuration not stated) [1-(Dimethylamino)-3-(quinazolin-4-yloxy)propan-2-ol (3q)]
78.5	474	593	OC(COc1ncnc2ccccc12)CN1CCCCC1 (configuration not stated) [1-(Piperidin-1-yl)-3-(quinazolin-4-yloxy)propan-2-ol (3s)]
81.7	483	602	OC(COc1ncnc2ccccc12)CN1CCOCC1 (configuration not stated) [1-Morpholino-3-(quinazolin-4-yloxy)propan-2-ol (3r)]
		114	COc1cc2nccc(Oc3ccc(NC(=O)Nc4cc(C)on4)c(Cl)c3)c2cc1OC [Tivozanib]
